Measurements as given in ChEMBL document CHEMBL1201862, “PubChem BioAssay data set” (2004).
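A five-concentration, 48-hour dose response in 96-well plates underlies each endpoint, interpolated linearly between surrounding concentrations. Here, GI50 denotes the concentration required for 50% inhibition of growth.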 The source made the active and inactive calls. Cut-off read from the data, not from the text of the source: active = GI50 up to about 1.1 µM and inactive = higher.

Assays:
Test in all cases: growth of human tumour cells (NCI), 48 h
Malme-3M = tested on: Malme-3M
M19-MEL = tested on: M19-MEL
UACC-62 = tested on: UACC-62
K562 = tested on: K562
DMS-273 = tested on: DMS-273
ACHN = tested on: ACHN
CAKI-1 = tested on: CAKI-1
XF498 = tested on: XF498
RPMI-8226 = tested on: RPMI-8226
OVCAR-8 = tested on: OVCAR-8
SK-MEL-5 = tested on: SK-MEL-5
KM12 = tested on: KM12
MOLT-4 = tested on: MOLT-4
UACC-257 = tested on: UACC-257
OVCAR-4 = tested on: OVCAR-4
HOP-92 = tested on: HOP-92
COLO 205 = tested on: COLO 205
786-0 = tested on: 786-0
NCI-H23 = tested on: NCI-H23
SN12C = tested on: SN12C
HOP-18 = tested on: HOP-18
M14 = tested on: M14
HCC 2998 = tested on: HCC 2998
HCT-116 = tested on: HCT-116
DLD-1 = tested on: DLD-1
UO-31 = tested on: UO-31
HL-60 = tested on: HL-60
EKVX = tested on: EKVX
SW-620 = tested on: SW-620
SNB-78 = tested on: SNB-78
DMS-114 = tested on: DMS-114
SK-OV-3 = tested on: SK-OV-3
SF-268 = tested on: SF-268
NCI-H460 = tested on: NCI-H460
A549 = tested on: A549
OVCAR-5 = tested on: OVCAR-5
U-251 = tested on: U-251
SK-MEL-28 = tested on: SK-MEL-28
HCT-15 = tested on: HCT-15
NCI-H226 = tested on: NCI-H226
HT-29 = tested on: HT-29
OVCAR-3 = tested on: OVCAR-3
IGROV-1 = tested on: IGROV-1
LXFL 529 = tested on: LXFL 529
RXF 393 = tested on: RXF 393
SF-295 = tested on: SF-295
TK-10 = tested on: TK-10
SK-MEL-2 = tested on: SK-MEL-2
SF-539 = tested on: SF-539
LOX IMVI = tested on: LOX IMVI
CCRF-CEM = tested on: CCRF-CEM
HOP-62 = tested on: HOP-62
A498 = tested on: A498
KM-20L2 = tested on: KM-20L2
NCI-H522 = tested on: NCI-H522
SNB-75 = tested on: SNB-75

In the case of CN(CCN1C(=O)c2cc([N+](=O)[O-])cc3cc([N+](=O)[O-])cc(c23)C1=O)CCN1C(=O)c2cc([N+](=O)[O-])cc3cc([N+](=O)[O-])cc(c23)C1=O, the GI50 (Malme-3M) is reported as 815 nM (active), the GI50 (M19-MEL) is reported as 369 nM (active) and the GI50 (UACC-62) is reported as 811 nM (active). For the same compound, the GI50 (K562) was 230 nM (active), the GI50 (DMS-273) was 391 nM (active) and the GI50 (ACHN) was 264 nM (active). For the same compound, the GI50 (CAKI-1) was 322 nM (active), the GI50 (XF498) was 211 nM (active) and the GI50 (RPMI-8226) was 342 nM (active). For the same compound, the GI50 (OVCAR-8) was 267 nM (active), the GI50 (SK-MEL-5) was 1210 nM (inactive) and the GI50 (KM12) was 681 nM (active). The GI50 (MOLT-4) was 48.5 nM (active), the GI50 (UACC-257) was 1210 nM (inactive) and the GI50 (OVCAR-4) was 524 nM (active). For the same compound, the GI50 (HOP-92) was 252 nM (active), the GI50 (COLO 205) was 393 nM (active) and the GI50 (786-0) was 455 nM (active). The GI50 (NCI-H23) was 1740 nM (inactive), the GI50 (SN12C) was 332 nM (active) and the GI50 (HOP-18) was 10600 nM (inactive). For the same compound, the GI50 (M14) was 652 nM (active), the GI50 (HCC 2998) was 491 nM (active) and the GI50 (HCT-116) was 153 nM (active). The GI50 (DLD-1) was 448 nM (active), the GI50 (UO-31) was 4800 nM (inactive) and the GI50 (HL-60) was 234 nM (active). The GI50 (EKVX) was 4260 nM (inactive), the GI50 (SW-620) was 74.1 nM (active) and the GI50 (SNB-78) was 255 nM (active). For the same compound, the GI50 (DMS-114) was 605 nM (active), the GI50 (SK-OV-3) was 2310 nM (inactive) and the GI50 (SF-268) was 458 nM (active). The GI50 (NCI-H460) was 387 nM (active), the GI50 (A549) was 887 nM (active) and the GI50 (OVCAR-5) was 1690 nM (inactive). For the same compound, the GI50 (U-251) was 375 nM (active), the GI50 (SK-MEL-28) was 798 nM (active) and the GI50 (HCT-15) was 482 nM. For the same compound, the GI50 (NCI-H226) was 778 nM (active), the GI50 (HT-29) was 272 nM (active) and the GI50 (OVCAR-3) was 646 nM (active). For the same compound, the GI50 (IGROV-1) was 347 nM (active), the GI50 (LXFL 529) was 211 nM (active) and the GI50 (RXF 393) was 238 nM (active). For the same compound, the GI50 (SF-295) was 590 nM (active), the GI50 (TK-10) was 8730 nM (inactive) and the GI50 (SK-MEL-2) was 764 nM (active). The GI50 (SF-539) was 399 nM (active), the GI50 (LOX IMVI) was 248 nM (active) and the GI50 (CCRF-CEM) was 52.4 nM (active). For the same compound, the GI50 (HOP-62) was 2650 nM (inactive), the GI50 (A498) was 12800 nM (inactive) and the GI50 (KM-20L2) was 1100 nM (active). The GI50 (NCI-H522) was 421 nM (active) and the GI50 (SNB-75) was 695 nM (active).
